Structures can show the parent of a compound that is named as a salt.
The compounds below were run against T1, human liver glycogen phosphorylase a (HLGPa) (Homo sapiens, UniProt P06737) (assay: Human liver glycogen phosphorylase a enzymatic activity assay (coupled, fluorescent resorufin readout, with and without 10 mM glucose)). Settings: human liver glycogen phosphorylase a enzymatic activity assay.
T1 construct: creating a full-length cDNA fused at the 5′ end to codons for methionine-glycine-alanine-histidine; 6xHis tag (leader Met-Gly-Ala-His6-Gly-Gly) (N); made in house; host or cells: E. coli (bacterial expression plasmid pTXK1007LTev)
T1 sequence (P06737 2-847 limits assumed): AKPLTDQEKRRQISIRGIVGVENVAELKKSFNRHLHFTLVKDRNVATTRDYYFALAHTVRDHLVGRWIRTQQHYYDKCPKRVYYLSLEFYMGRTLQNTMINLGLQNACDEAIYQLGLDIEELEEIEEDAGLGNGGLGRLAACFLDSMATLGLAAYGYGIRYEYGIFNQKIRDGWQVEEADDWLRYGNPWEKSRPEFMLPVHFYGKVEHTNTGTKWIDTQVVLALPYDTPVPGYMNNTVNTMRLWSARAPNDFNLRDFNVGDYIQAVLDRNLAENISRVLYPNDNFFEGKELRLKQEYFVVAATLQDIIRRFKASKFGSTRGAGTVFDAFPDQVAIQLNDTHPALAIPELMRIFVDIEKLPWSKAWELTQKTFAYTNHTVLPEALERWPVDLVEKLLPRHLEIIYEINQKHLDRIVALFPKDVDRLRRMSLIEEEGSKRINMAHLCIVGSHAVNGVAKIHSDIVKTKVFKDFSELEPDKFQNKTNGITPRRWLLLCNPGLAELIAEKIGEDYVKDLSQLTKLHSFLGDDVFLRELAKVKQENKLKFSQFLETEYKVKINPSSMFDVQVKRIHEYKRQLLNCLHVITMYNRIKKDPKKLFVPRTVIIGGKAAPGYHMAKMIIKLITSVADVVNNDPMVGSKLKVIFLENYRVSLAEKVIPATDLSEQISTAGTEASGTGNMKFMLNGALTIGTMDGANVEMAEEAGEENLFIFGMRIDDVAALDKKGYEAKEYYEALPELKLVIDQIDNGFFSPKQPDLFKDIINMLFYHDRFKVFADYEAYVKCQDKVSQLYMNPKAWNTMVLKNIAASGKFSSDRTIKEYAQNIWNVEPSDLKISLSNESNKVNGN
Assay type: biochemical

SMILES	IC50 [µM]
C[C@H](NC(=O)c1cc2ccccc2cc1NC(=O)Nc1ccccc1Cl)C(=O)O [Example 27, N-[3-({[(2-chlorophenyl)amino]carbonyl}amino)-2-naphthoyl]-L-alanine]	13.5
O=C(Nc1ccccc1Cl)Nc1cc2ccccc2cc1C(=O)N[C@@H](CO)C(=O)O [Example 28, N-[3-({[(2-chlorophenyl)amino]carbonyl}amino)-2-naphthoyl]-L-serine]	24.1
C[C@@H](O)[C@H](NC(=O)c1cc2ccccc2cc1NC(=O)Nc1ccccc1Cl)C(=O)O [Example 29, N-[3-({[(2-chlorophenyl)amino]carbonyl}amino)-2-naphthoyl]-L-threonine]	7.26
CC[C@H](C)[C@H](NC(=O)c1cc2ccccc2cc1NC(=O)Nc1ccccc1Cl)C(=O)O [Example 30, N-[3-({[(2-chlorophenyl)amino]carbonyl}amino)-2-naphthoyl]-L-isoleucine]	22.1
NC(=O)C[C@H](NC(=O)c1cc2ccccc2cc1NC(=O)Nc1ccccc1Cl)C(=O)O [Example 31, N-[3-({[(2-chlorophenyl)amino]carbonyl}amino)-2-naphthoyl]-L-asparagine]	11.4
NC(=O)CC[C@H](NC(=O)c1cc2ccccc2cc1NC(=O)Nc1ccccc1Cl)C(=O)O [Example 32, N-[3-({[(2-chlorophenyl)amino]carbonyl}amino)-2-naphthoyl]-L-glutamine]	41
Cc1cccc(Cl)c1NC(=O)Nc1cc2ccccc2cc1C(=O)N[C@@H](C)C(=O)O [Example 33, N-[3-({[(2-chloro-6-methylphenyl)amino]carbonyl}amino)-2-naphthoyl]-L-alanine]	0.52
Cc1cccc(Cl)c1NC(=O)Nc1cc2ccccc2cc1C(=O)N[C@@H](CO)C(=O)O [Example 34, N-[3-({[(2-chloro-6-methylphenyl)amino]carbonyl}amino)-2-naphthoyl]-L-serine]	0.64
Cc1cccc(Cl)c1NC(=O)Nc1cc2ccccc2cc1C(=O)N1CCC[C@H]1C(=O)O [Example 35, 1-[3-({[(2-chloro-6-methylphenyl)amino]carbonyl}amino)-2-naphthoyl]-L-proline]	0.58
Cc1cccc(Cl)c1NC(=O)Nc1cc2ccccc2cc1C(=O)N[C@H](C(=O)O)C(C)C [Example 36, N-[3-({[(2-chloro-6-methylphenyl)amino]carbonyl}amino)-2-naphthoyl]-L-valine]	1.71
Cc1cccc(Cl)c1NC(=O)Nc1cc2ccccc2cc1C(=O)N[C@H](C(=O)O)[C@@H](C)O [Example 37, N-[3-({[(2-chloro-6-methylphenyl)amino]carbonyl}amino)-2-naphthoyl]-L-threonine]	0.43
CC[C@H](C)[C@H](NC(=O)c1cc2ccccc2cc1NC(=O)Nc1c(C)cccc1Cl)C(=O)O [Example 38, N-[3-({[(2-chloro-6-methylphenyl)amino]carbonyl}amino)-2-naphthoyl]-L-isoleucine]	0.28
Cc1cccc(Cl)c1NC(=O)Nc1cc2ccccc2cc1C(=O)N[C@@H](CC(C)C)C(=O)O [Example 39, N-[3-({[(2-chloro-6-methylphenyl)amino]carbonyl}amino)-2-naphthoyl]-L-leucine]	0.6
Cc1cccc(Cl)c1NC(=O)Nc1cc2ccccc2cc1C(=O)N[C@@H](CC(N)=O)C(=O)O [Example 40, N-[3-({[(2-chloro-6-methylphenyl)amino]carbonyl}amino)-2-naphthoyl]-L-asparagine]	0.42
Cc1cccc(Cl)c1NC(=O)Nc1cc2ccccc2cc1C(=O)N[C@@H](CCC(N)=O)C(=O)O [Example 41, N-[3-({[(2-chloro-6-methylphenyl)amino]carbonyl}amino)-2-naphthoyl]-L-glutamine]	1.32
Cc1ccccc1NC(=O)Nc1cc2ccccc2cc1C(=O)N[C@@H](CCC(=O)O)C(=O)O [Example 42, N-[3-({[(2-methylphenyl)amino]carbonyl}amino)-2-naphthoyl]-L-glutamic acid]	28.3
CSCC[C@H](NC(=O)c1cc2ccccc2cc1NC(=O)Nc1ccccc1C)C(=O)O [Example 43, N-[3-({[(2-methylphenyl)amino]carbonyl}amino)-2-naphthoyl]-L-methionine]	18.9
Cc1ccccc1NC(=O)Nc1cc2ccccc2cc1C(=O)N[C@@H](Cc1cnc[nH]1)C(=O)O [Example 44, N-[3-({[(2-methylphenyl)amino]carbonyl}amino)-2-naphthoyl]-L-histidine trifluoroacetate]	5.18

Next, values leading:

IC50 [µM]	SMILES
16.9	Cc1ccccc1NC(=O)Nc1cc2ccccc2cc1C(=O)N[C@@H](Cc1ccccc1)C(=O)O [Example 45, N-[3-({[(2-methylphenyl)amino]carbonyl}amino)-2-naphthoyl]-L-phenylalanine]
3.73	Cc1ccccc1NC(=O)Nc1cc2ccccc2cc1C(=O)N[C@@H](Cc1c[nH]c2ccccc12)C(=O)O [Example 46, N-[3-({[(2-methylphenyl)amino]carbonyl}amino)-2-naphthoyl]-L-tryptophan]
8.06	Cc1cccc(C)c1NC(=O)Nc1cc2ccccc2cc1C(=O)N[C@@H](CCCCN)C(=O)O [Example 47, N-[3-({[(2,6-dimethylphenyl)amino]carbonyl}amino)-2-naphthoyl]-L-lysine trifluoroacetate]
1.73	Cc1cccc(C)c1NC(=O)Nc1cc2ccccc2cc1C(=O)N[C@@H](CCC(=O)O)C(=O)O [Example 48, N-[3-({[(2,6-dimethylphenyl)amino]carbonyl}amino)-2-naphthoyl]-L-glutamic acid]
1.67	CSCC[C@H](NC(=O)c1cc2ccccc2cc1NC(=O)Nc1c(C)cccc1C)C(=O)O [Example 49, N-[3-({[(2,6-dimethylphenyl)amino]carbonyl}amino)-2-naphthoyl]-L-methionine]
2.3	Cc1cccc(C)c1NC(=O)Nc1cc2ccccc2cc1C(=O)N[C@@H](Cc1cnc[nH]1)C(=O)O [Example 50, N-[3-({[(2,6-dimethylphenyl)amino]carbonyl}amino)-2-naphthoyl]-L-histidine trifluoroacetate]
0.68	Cc1cccc(C)c1NC(=O)Nc1cc2ccccc2cc1C(=O)N[C@@H](Cc1ccccc1)C(=O)O [Example 51, N-[3-({[(2,6-dimethylphenyl)amino]carbonyl}amino)-2-naphthoyl]-L-phenylalanine]
4.64	Cc1cccc(C)c1NC(=O)Nc1cc2ccccc2cc1C(=O)N[C@@H](CCCNC(=N)N)C(=O)O [Example 52, N-[3-({[(2,6-dimethylphenyl)amino]carbonyl}amino)-2-naphthoyl]-L-arginine]
0.36	Cc1cccc(C)c1NC(=O)Nc1cc2ccccc2cc1C(=O)N[C@@H](Cc1ccc(O)cc1)C(=O)O [Example 53, N-[3-({[(2,6-dimethylphenyl)amino]carbonyl}amino)-2-naphthoyl]-L-tyrosine]
0.51	Cc1cccc(C)c1NC(=O)Nc1cc2ccccc2cc1C(=O)N[C@@H](Cc1c[nH]c2ccccc12)C(=O)O [Example 54, N-[3-({[(2,6-dimethylphenyl)amino]carbonyl}amino)-2-naphthoyl]-L-tryptophan trifluoroacetate]
10.4	O=C(O)CC[C@H](NC(=O)c1cc2ccccc2cc1NC(=O)Nc1ccccc1Cl)C(=O)O [Example 55, N-[3-({[(2-chlorophenyl)amino]carbonyl}amino)-2-naphthoyl]-L-glutamic acid]
3.08	O=C(Nc1ccccc1Cl)Nc1cc2ccccc2cc1C(=O)N[C@@H](Cc1cnc[nH]1)C(=O)O [Example 56, N-[3-({[(2-chlorophenyl)amino]carbonyl}amino)-2-naphthoyl]-L-histidine trifluoroacetate]
5.21	O=C(Nc1ccccc1Cl)Nc1cc2ccccc2cc1C(=O)N[C@@H](Cc1ccccc1)C(=O)O [Example 57, N-[3-({[(2-chlorophenyl)amino]carbonyl}amino)-2-naphthoyl]-L-phenylalanine]
4.7	O=C(Nc1ccccc1Cl)Nc1cc2ccccc2cc1C(=O)N[C@@H](Cc1c[nH]c2ccccc12)C(=O)O [Example 58, N-[3-({[(2-chlorophenyl)amino]carbonyl}amino)-2-naphthoyl]-L-tryptophan trifluoroacetate]
2.99	Cc1cccc(Cl)c1NC(=O)Nc1cc2ccccc2cc1C(=O)N[C@@H](CCCCN)C(=O)O [Example 59, N-[3-({[(2-chloro-6-methylphenyl)amino]carbonyl}amino)-2-naphthoyl]-L-lysine trifluoroacetate]
0.64	CSCC[C@H](NC(=O)c1cc2ccccc2cc1NC(=O)Nc1c(C)cccc1Cl)C(=O)O [Example 60, N-[3-({[(2-chloro-6-methylphenyl)amino]carbonyl}amino)-2-naphthoyl]-L-methionine]

— patent publication US20070249670A1, “Glycogen Phosphorylase Inhibitor Compounds and Pharmaceutical Compositions Thereof” (SMITHKLINE BEECHAM CORPORATION, priority 2004, published 2007)
